Marks after values point to notes of the source that are not given here.

One data set in a line: logP determination by retention times (calibration with alkan-2-ones).
Conditions: not given
`Cc1nc(C(C)C)sc1-c1ccnc(Nc2ccc3c(c2)OCCO3)n1` [Example 389, N-(2,3-dihydro-1,4-benzodioxin-6-yl)-4-(2-isopropyl-4-methyl-1,3-thiazol-5-yl)pyrimidine-2-amine] gave a chromatographic logP of 3.16.
The same measure, in the same setting: the same measure for `Cc1nc(C)c(-c2ccnc(Nc3cccc([N+](=O)[O-])c3)n2)s1` [Example 184, 4-(2,4-dimethyl-1,3-thiazol-5-yl)-N-(3-nitrophenyl)pyrimidine-2-amine]: 2.61; for `COc1ccc(Nc2nccc(-c3sc(N)nc3C)n2)cc1OC` [Example 202, 4-(2-amino-4-methyl-1,3-thiazol-5-yl)-N-(3,4-dimethoxyphenyl)pyrimidine-2-amine]: 1.28; for `Cc1nc(C2CCCCC2)sc1-c1ccnc(Nc2cccc([N+](=O)[O-])c2)n1` [Example 216, 4-(2-cyclohexyl-4-methyl-1,3-thiazol-5-yl)-N-(3-nitrophenyl)pyrimidine-2-amine]: 4.63.
Same read-out and setting: the same measure for `CCc1nc(C)c(-c2ccnc(Nc3ccc4c(c3)OCCO4)n2)s1` [Example 388, N-(2,3-dihydro-1,4-benzodioxin-6-yl)-4-(2-ethyl-4-methyl-1,3-thiazol-5-yl)pyrimidine-2-amine]: 2.7; for `COCc1nc(C)c(-c2ccnc(Nc3ccc(C(F)(F)F)cc3)n2)s1` [Example 300, 4-[2-(methoxymethyl)-4-methyl-1,3-thiazol-5-yl]-N-[4-(trifluoromethyl)phenyl]pyrimidine-2-amine]: 3.59.
Same read-out and setting: the same measure for `CCc1nc(C)c(-c2ccnc(Nc3ccc(C(=O)O)cc3)n2)s1` [Example 325, 4-{[4-(2-ethyl-4-methyl-1,3-thiazol-5-yl)pyrimidin-2-yl]amino}benzoic acid]: 2.16.
`COc1cccc(Nc2nccc(-c3sc(C)nc3C)n2)c1` [Example 183, 4-(2,4-dimethyl-1,3-thiazol-5-yl)-N-(3-methoxyphenyl)pyrimidine-2-amine] displayed a chromatographic logP of 2.64.
On the same count and under the same terms, the same measure for `CC(=O)c1cccc(Nc2nccc(-c3sc(C4CCCCC4)nc3C)n2)c1` [Example 6, 1-(3-{[4-(2-cyclohexyl-4-methyl-1,3-thiazol-5-yl)pyrimidin-2-yl]amino}phenyl)ethanone]: 4.11; for `COCc1nc(C)c(-c2ccnc(Nc3ccc(N(C)C)c(Cl)c3)n2)s1` [Example 65, 2-chloro-N4-{4-[2-(methoxymethyl)-4-methyl-1,3-thiazol-5-yl]pyrimidin-2-yl}-N1,N1-dimethylbenzene-1,4-diamine]: 2.04.

Staying with this data set, now noted: * HPLC reversed-phase C18, 40° C., mobile phase 0.1% aqueous formic acid and acetonitrile, linear gradient 10% to 95% acetonitrile.
On to `COc1ccc(Nc2nccc(-c3sc(N(C)C)nc3C(F)(F)F)n2)cn1` [Example 783, 4-[2-(dimethylamine)-4-(trifluoromethyl)-1,3-thiazol-5-yl]-N-(6-methoxypyridin-3-yl)pyrimidine-2-amine], for which the logP was 3.17*.
Turning to `CN(C)c1nc(C(F)(F)F)c(-c2ccnc(Nc3ccc(N(C)C)c(Cl)c3)n2)s1` [Example 701, 2-chloro-N4-{4-[2-(dimethylamine)-4-(trifluoromethyl)-1,3-thiazol-5-yl]pyrimidin-2-yl}-N1,N1-dimethylbenzene-1,4-diamine], the logP is listed as 3.46*.
On the same count and under the same terms, the result for `CN(C)c1nc(C(F)(F)F)c(-c2ccnc(Nc3ccc4c(c3)OCO4)n2)s1` [Example 704, N-1,3-benzodioxol-5-yl-4-[2-(dimethylamine)-4-(trifluoromethyl)-1,3-thiazol-5-yl]pyrimidine-2-amine] reads 3.63*.

The data set is the same for the next values; noted with them: HPLC, reversed-phase C 18, EEC Directive 79/831 Annex V.A8; method *: 40° C., 0.1% aqueous formic acid and acetonitrile, linear gradient 10% to 95% acetonitrile.
In the case of `COc1cccc(Nc2nccc(-c3sc(N(C)C)nc3C)n2)c1` [Example 293, 4-[2-(dimethylamine)-4-methyl-1,3-thiazol-5-yl]-N-(3-methoxyphenyl)pyrimidine-2-amine], the logP is listed as 1.98*.
As for `Cc1cc(Nc2nccc(-c3sc(N(C)C)nc3C)n2)ccc1F` [Example 294, 4-[2-(dimethylamine)-4-methyl-1,3-thiazol-5-yl]-N-(4-fluoro-3-methylphenyl)pyrimidine-2-amine], the logP is 2.22*.

Still in this data set, the particulars now being: logP(HCOOH), HCOOH.
Turning to `Cc1nc(C2CCCCC2)sc1-c1ccnc(Nc2cccc([N+](=O)[O-])c2)n1` [Example 216, 4-(2-cyclohexyl-4-methyl-1,3-thiazol-5-yl)-N-(3-nitrophenyl)pyrimidine-2-amine], the chromatographic logP was found to be 4.63.

Staying with this data set, now noted: logP, * HPLC reversed-phase C18, 40° C., mobile phase 0.1% aqueous formic acid and acetonitrile, linear gradient 10% to 95% acetonitrile.
With `COCCNc1nc(C)c(-c2ccnc(Nc3cccc(Cl)c3)n2)s1` [Example 680, N-(3-chlorophenyl)-4-{2-[(2-methoxyethyl)amino]-4-methyl-1,3-thiazol-5-yl}pyrimidine-2-amine], the chromatographic logP is 2.28.
In turn, `COc1ccc(Nc2nccc(-c3sc(C)nc3C)n2)cc1` [Example 788, 4-(2,4-dimethyl-1,3-thiazol-5-yl)-N-(4-methoxyphenyl)pyrimidine-2-amine] yielded a chromatographic logP of 2.34.
As to `COCCNc1nc(C)c(-c2ccnc(Nc3ccc4c(c3)OCCO4)n2)s1` [Example 803, N-(2,3-dihydro-1,4-benzodioxin-6-yl)-4-{2-[(2-methoxyethyl)amino]-4-methyl-1,3-thiazol-5-yl}pyrimidine-2-amine], the chromatographic logP is 1.63.
Molecule `COc1cc(Nc2nccc(-c3sc(SC)nc3C)n2)cc(OC)c1` [Example 407, N-(3,5-dimethoxyphenyl)-4-[4-methyl-2-(methylthio)-1,3-thiazol-5-yl]pyrimidine-2-amine] displayed a chromatographic logP of 3.39.
The molecule `COc1cc(Nc2nccc(-c3sc(N4CCOCC4)nc3C)n2)cc(OC)c1OC` [Example 735, 4-(4-methyl-2-morpholin-4-yl-1,3-thiazol-5-yl)-N-(3,4,5-trimethoxyphenyl)pyrimidine-2-amine] yielded a chromatographic logP of 2.07.
Molecule `Cc1nc(C2CCCCC2)sc1-c1ccnc(Nc2ccc(N(C)C)cc2)n1` [Example 553, N′-[4-(2-cyclohexyl-4-methyl-1,3-thiazol-5-yl)pyrimidin-2-yl]-N,N-dimethylbenzene-1,4-diamine] gave a chromatographic logP of 2.38.
Consider `CC(=O)Nc1ccc(Nc2nccc(-c3sc(C4CC4)nc3C)n2)cc1` [Example 459, N-(4-{[4-(2-cyclopropyl-4-methyl-1,3-thiazol-5-yl)pyrimidin-2-yl]amino}phenyl)acetamide], for which the chromatographic logP was found to be 2.
Same read-out and setting: the result for `COc1cccc(Nc2nccc(-c3sc(SC)nc3C)n2)c1` [Example 449, N-(3-methoxyphenyl)-4-[4-methyl-2-(methylthio)-1,3-thiazol-5-yl]pyrimidine-2-amine] reads 3.33; that for `Cc1nc(C)c(-c2ccnc(Nc3cccnc3)n2)s1` [Example 716, 4-(2,4-dimethyl-1,3-thiazol-5-yl)-N-pyridin-3-ylpyrimidine-2-amine], 0.98; that for `CC(=O)c1cccc(Nc2nccc(-c3sc(C)nc3C(F)F)n2)c1` [Example 709, 1-[3-({4-[4-(difluoromethyl)-2-methyl-1,3-thiazol-5-yl]pyrimidin-2-yl}amino)phenyl]ethanone], 2.64.
`Cc1nc(C(F)(F)F)c(-c2ccnc(Nc3cccc(Cl)c3)n2)s1` [Example 433, N-(3-chlorophenyl)-4-[2-methyl-4-(trifluoromethyl)-1,3-thiazol-5-yl]pyrimidine-2-amine] returned a chromatographic logP of 4.03.
The molecule `CCc1nc(C)c(-c2ccnc(Nc3ccc4c(c3)OCO4)n2)s1` [Example 618, N-1,3-benzodioxol-5-yl-4-(2-ethyl-4-methyl-1,3-thiazol-5-yl)pyrimidine-2-amine] gave a chromatographic logP of 2.77.
`COCCNc1nc(C)c(-c2ccnc(Nc3ccc(F)cc3)n2)s1` [Example 677, N-(4-fluorophenyl)-4-{2-[(2-methoxyethyl)amino]-4-methyl-1,3-thiazol-5-yl}pyrimidine-2-amine] showed a chromatographic logP of 1.9.
Still for that read-out and setting: the same measure for `COCCCNc1nc(C)c(-c2ccnc(Nc3ccccc3)n2)s1` [Example 725, 4-{2-[(3-methoxypropyl)amino]-4-methyl-1,3-thiazol-5-yl}-N-phenylpyrimidine-2-amine]: 1.81; for `COCCNc1nc(C)c(-c2ccnc(Nc3cc(OC)cc(OC)c3)n2)s1` [Example 801, N-(3,5-dimethoxyphenyl)-4-{2-[(2-methoxyethyl)amino]-4-methyl-1,3-thiazol-5-yl}pyrimidine-2-amine]: 1.96.

Staying with this data set, now noted: logP, ** HPLC reversed-phase C18, 43° C., mobile phase 0.1% aqueous phosphoric acid and acetonitrile, linear gradient 10% to 95% acetonitrile.
`Cc1nc(C)c(-c2ccnc(Nc3ccc(Cl)cc3)n2)s1` [Example 462, N-(4-chlorophenyl)-4-(2,4-dimethyl-1,3-thiazol-5-yl)pyrimidine-2-amine] yielded a chromatographic logP of 3.09.

Still in this data set, the particulars now being: logP, values marked *: HPLC on reversed-phase C 18, 40° C., mobile phase 0.1% aqueous formic acid and acetonitrile, linear gradient 10% to 95% acetonitrile.
With `COCCCNc1nc(C)c(-c2ccnc(Nc3cc(OC)c(OC)c(OC)c3)n2)s1` [Example 866, 4-{2-[(3-methoxypropyl)amino]-4-methyl-1,3-thiazol-5-yl}-N-(3,4,5-trimethoxyphenyl)pyrimidine-2-amine], the chromatographic logP was 1.73.
Same read-out and setting: the result for `COCCCNc1nc(C)c(-c2ccnc(Nc3ccc(F)c(C)c3)n2)s1` [Example 857, N-(4-fluoro-3-methylphenyl)-4-{2-[(3-methoxypropyl)amino]-4-methyl-1,3-thiazol-5-yl}pyrimidine-2-amine] reads 2.11; that for `COCCOc1nc(C)c(-c2ccnc(Nc3cc(OC)c(OC)c(OC)c3)n2)s1` [Example 910, 4-[2-(2-methoxyethoxy)-4-methyl-1,3-thiazol-5-yl]-N-(3,4,5-trimethoxyphenyl)pyrimidine-2-amine], 2.53; that for `CCc1nc(C)c(-c2ccnc(Nc3cccc(N(C)C)c3)n2)s1` [Example 880, N′-[4-(2-ethyl-4-methyl-1,3-thiazol-5-yl)pyrimidin-2-yl]-N,N-dimethylbenzene-1,3-diamine], 1.99.
The same measure, in the same setting: the same measure for `CC(=O)c1cccc(Nc2nccc(-c3sc(C(C)(C)C)nc3C)n2)c1` [Example 887, 1-(3-{[4-(2-tert-butyl-4-methyl-1,3-thiazol-5-yl)pyrimidin-2-yl]amino}phenyl)ethanone]: 3.66.

The term chromatographic logP denotes lipophilicity estimated from chromatographic retention. Low values mean lower lipophilicity, high ones higher lipophilicity.

The record behind these values is patent publication US20090030024A1, “THIAZOLES AS FUNGICIDES” (priority 2005, published 2009).
